# Legend:
# [1] = Rough Screening Model for bioavailability: ratio ED50 iv/ED50 id of acid secretion inhibition in the rat; set-up: species or system Male rats of the Sprague-Dawley strain; details: in vivo, ratio of ED50 values, read-out: "Bioavailability" measured by the Rough Screening Model, Rat ED50 iv/ED50 id
# Protocol: Since the bioavailability model described above is time and labour intensive, and requires a large number of plasma analyses, also a rough screening model, based on relative potencies to inhibit acid secretion, has been used (see for instance: A. Goth, Medical Pharmacology, 7the ed., C. V. Mosby Company, Saint Louis 1974, p 19). Thus, the ratio (called "Bioavailability" in Table 3) between the ED50 at intravenous administration and the ED50 at intraduodenal administration was calculated.
# Before secretory tests, the animals were deprived of food but not water for 20 h. The stomach was repeatedly washed through the gastric cannula, and 6 ml of Ringer-Glucose given s.c. Acid secretion was stimulated with a infusion during 3.5 h (1.2ml/h, s.c.) of pentagastrin and carbachol (20 and 110 nmol/kg h, respectively), during which time gastric secretions were collected in 30-min fractions. […] Gastric juice samples were titrated to pH 7.0 with NaOH, 0.1 mol/L, and acid output calculated as the product of titrant volume and concentration. […] The acid output during the periods after administration of test substances or vehicle were expressed as fractional responses, setting the acid output in the 30-min period preceding administration to 1.0. Percentage inhibition was calculated from the fractional responses elicited by test compound and vehicle. […]
# gastric acid secretion [2] = assay: Inhibition of Gastric Acid Secretion in the Conscious Male Rat (pentagastrin and carbachol stimulated); type: in vivo, Male rats of the Sprague-Dawley strain; details: second hour after administration
# Protocol: (§1) The potency for inhibition of acid secretion has been measured in the male rat and the dog, both intravenously and intraduodenally. When it comes to relevance of the animal test data for potency of a given compound in man for the present type of compounds, it is believed that potency in man will correspond to a level somewhere between what is measured in the male rat and what is measured in the dog.
# Male rats of the Sprague-Dawley strain were used. They were equipped with cannulated fistulae in the stomach (lumen) and the upper part of the duodenum, for collection of gastric secretions and administration of test substances, respectively. A fourteen days recovery period after surgery was allowed before testing commenced.
# Before secretory tests, the animals were deprived of food but not water for 20 h. The stomach was repeatedly washed through the gastric cannula, and 6 ml of Ringer-Glucose given s.c. Acid secretion was stimulated with a infusion during 3.5 h (1.2ml/h, s.c.) of pentagastrin and carbachol (20 and 110 nmol/kg h, respectively), during which time gastric secretions were collected in 30-min fractions. Test substances or vehicle were given iv or id at 90 min after starting the stimulation, in a volume of 1 ml/kg. Gastric juice samples were titrated to pH 7.0 with NaOH, 0.1 mol/L, and acid output calculated as the product of titrant volume and concentration. Further calculations were based on group mean responses from 4-5 rats. The acid output during the periods after administration of test substances or vehicle were expressed as fractional responses, setting the acid output in the 30-min period preceding administration to 1.0. Percentage inhibition was calculated from the fractional responses elicited by test compound and vehicle. ED50 -values were obtained from graphical interpolation on log dose-response curves, or estimated from single-dose experiments assuming a similar slope for all dose-response curves. An estimation of the bioavailability was obtained by calculating the ratio ED50 iv/ED50 id. The results reported are based on gastric acid secretion during the second hour after drug/vehicle administration.
# [3] = Chemical stability in aqueous buffer solution; type: physicochemical; details: low concentration
# Protocol: The chemical stability of various compounds of the invention has been followed kinetically at low concentration at 37°C. in aqueous buffer solution at different pH values. The results in Table 3 show the half life (t 1/2) at pH 7, that is the time period after which half the amount of the original compound remains unchanged.
# gastric acid secretion [4] = assay: Inhibition of Gastric Acid Secretion in the Conscious Dog (histamine stimulated); type: in vivo, Harrier dogs of either sex
# Protocol: as §1
# (§2) Harrier dogs of either sex were used. They were equipped with a duodenal fistula for the administration of test compounds or vehicle and a cannulated ventricular fistula for the collection of gastric secretions.
# Before secretory tests the animals were fasted for about 18 h but water was freely allowed. Gastric acid secretion was stimulated by a 4 h infusion of histamine dihydrochloride (12 ml/h) at a dose producing about 80% of the individual maximal secretory response, and gastric juice collected in consecutive 30-min fractions. Test substance or vehicle was given id or iv 1 h after starting the histamine infusion, in a volume of 0.5 ml/kg body weight. The acidity of the gastric juice samples were determined by titration to pH 7.0, and the acid output calculated. The acid output in the collection periods after administration of test substance or vehicle were expressed as fractional responses, setting the acid output in the fraction preceding administration to 1.0. Percentage inhibition was calculated from fractional responses elicited by test compound and vehicle. ED50 -values were obtained by graphical interpolation on log dose - response curves, or estimated from single-dose experiments under the assumption of the same slope of the dose-response curve for all test compounds. All results reported are based on acid output 2 h after dosing.
# [5] = Bioavailability in the Male Rat, AUC method; type: in vivo, Male adult rats of the Sprague-Dawley strain; details: blood, 4 umol/kg, 4 μmol/kg id and iv, up to 4 h, extrapolated to infinity, read-out: Bioavailability measured by the AUC-method F%, Rat
# Description: The results from tests on two different animal species, rat and dog, vary in regard to measured level of bioavailability for the same compound. We believe that the rat is the more relevant species for bioavailability testing. This is based on our belief that liver metabolism has the most predominant impact upon bioavailability, and that the liver metabolic pattern in man for this type of compounds is quite similar to that of the male rat (more so than of the female rat and the dog). Moreover, test results of bioavailability in the male rat will tend to give a broader "spread" compared with the test results in the dog, and thus the male rat model will give more clear differences in bioavailability between different compounds. […]
# Bioavailability is assessed by calculating the quotient between the area under plasma concentration (AUC) curve following introduodenal (id) administration and intravenous (iv) administration from the rat or the dog. […]
# The area under the blood concentration vs time curve, AUC, was determined by the linear trapezoidal rule and extrapolated to infinity by dividing the last determined blood concentration by the elimination rate constant in the terminal phase. The systemic bioavailability (F%) following intraduodenal administration was calculated as [formula]
# [6] = Bioavailability in the dog, AUC method; type: in vivo, Harrier dogs of either sex; details: id vs iv, plasma up to 3 h, extrapolated to infinite time, read-out: Bioavailability measured by the AUC-method F%, Dog
# Protocol: Bioavailability is assessed by calculating the quotient between the area under plasma concentration (AUC) curve following introduodenal (id) administration and intravenous (iv) administration from the rat or the dog. Low, therapeutically relevant doses, were used. This method is scientifically recognized as valid for assessing bioavailability (see for instance: M. Rowland and T. N. Tozer, Clinical Pharmacokinetics, 2nd ed., Lea & Febiger, London 1989, p 42).
# as §2
# Blood samples for the analysis of test compound concentration in plasma were taken at intervals up to 3 h after dosing. Plasma was separated and frozen within 30 min after collection. AUC (area under the plasma concentration - time curve), extrapolated to infinite time, was calculated by the linear trapezoidal rule. The systemic bioavailability (F%) after id administration was calculated as 100 × (AUCid /AUCiv).
SMILES,bioavailability [1] [%],"ED50 (gastric acid secretion [2]; route id, read-out: Inhibition of acid secretion, Rat ED50, id) [µmol/kg]","ED50 (gastric acid secretion [2]; route iv, read-out: Inhibition of acid secretion, Rat ED50, iv) [µmol/kg]","Chemical stability at pH 7, half-life (t 1/2) ([3]; 37°C) [h]","half-life ([3]; pH 7, 37°C, read-out: Chemical stability at pH 7, half-life (t 1/2) (converted)) [h]","ED50 (gastric acid secretion [4]; Canis lupus familiaris, dog, route id, acid output 2 h after dosing) [µmol/kg]","inhibition of acid secretion (gastric acid secretion [4]; Dog 1, 1 μmol/kg, iv) [%]","inhibition of acid secretion (in words) (gastric acid secretion [4]; Dog 2, 1 μmol/kg, iv)","inhibition of acid secretion (gastric acid secretion [4]; Dog 3, 2 μmol/kg, iv) [%]",bioavailability [5] [%],bioavailability [6] [%],"Inhibition of acid secretion, Rat ED50, id (gastric acid secretion [2]; route id) [µmol/kg]","Inhibition of acid secretion, Rat ED50, iv (gastric acid secretion [2]; route iv) [µmol/kg]","inhibition of acid secretion (gastric acid secretion [4]; Dog 4, 3 μmol/kg, id (footnote to id column)) [%]","inhibition of acid secretion (gastric acid secretion [4]; Dog 5, 3 μmol/kg, id (footnote to id column)) [%]"
"[O-][S+](Cc1cc(OCC2CC2)ccn1)c1nc2cc(F)ccc2[nH]1 (stereo not drawn) [Example 1, 5-fluoro-2-[[(4-cyclopropyl-methoxy-2-pyridinyl)methyl]sulfinyl]-1H-benzimidazole]",55,2.2,1.2,23,23,1,35,no effect,98,82,80,,,,
"CC(C)Oc1ccnc(C[S+]([O-])c2nc3cc(F)ccc3[nH]2)c1 (stereo not drawn) [Ref., 5-fluoro-2-[[(4-isopropoxy-2-pyridinyl)-methyl]sulfinyl]-1H-benzimidazole, reference compound]",,,,,,,,,,,,4.0,1.8,95,98
